Patent US9745266B2 (THE REGENTS OF THE UNIVERSITY OF COLORADO, A BODY CORPORATE, priority 2013, dated 2017)
In brackets after ≈: the same amount, converted by molar mass. Where two headings read alike, the source gives them in different places.

Experiments:
[1] = test system: HeLa cells; assay: Mammalian cytotoxicity, CellTiter-Glo viability assay; format: cell-based, human; conditions: 24 hours
Experimental: To evaluate the cytotoxicity of Of1 in mammalian cells, a cell viability assay was carried out using CellTiter-Glo luminescent cell viability assay kit (Promega). Human cervixcal adenocarcinoma HeLa cells were seeded on white, cell-culture treated 96-well plates (Corning: 3917) with Dulbecco's modified Eagle's medium (DMEM) supplemented with 10% fetal calf serum (FCS), 1% penicillin/streptomycin, at the densities of 20,000 cells/well. The medium volume for each well was 100 μL. Cells were incubated at 37° C. in 5% CO2/95% air for 16 hours. The medium was removed from each well and replaced with 99 μL of warmed fresh medium. To each well, 1 μL of Of1 analog was added in DMSO to final concentrations of 0.5-32 μg/mL. Each series was performed in triplicate. After incubation at 37° C. for another 24 hours, the plates were equilibrated to room temperature for 30 minutes. 100 μL of CellTiter-Glo reagent (Promega) was added to each well and mixed for 2 minutes on an orbital shaker. The plate was incubated at room temperature for another 10 minutes to stabilize luminescent signal. The luminescence of each sample was recorded in an Envision Multilabel Plate Reader (Perkin Elmer).

[2] = test system: MRSA ATCC 33592; assay: Minimum resensitizing concentration (MRC), modified broth microdilution; format: cell-based, S. aureus
Experimental: (§1) For these activity tests, AMOXICILLIN® was used in combination with clavulanic acid (a.k.a., AUGMENTIN®), CEFAZOLIN®, and MEROPENEM® (an ultra-broad-spectrum carbapenem). […] To assess activity of each analog as a resistance-modifying agent (RMA), a modified broth microdilution assay was used. Briefly, this involves incubating MRSA with 2-fold serial dilutions of a compound in the presence of each individual antibiotic at its Clinical Laboratory Standards Institutes (CLSI)-defined sensitive concentration. For AMOXICILLIN®/clavulanic acid, this concentration is 4/2 μg/ml (8-fold potentiation), for CEFAZOLIN®, 8 μg/ml (16-fold potentiation) and for MEROPENEM®, 4 μg/ml (4-fold potentiation). Following overnight incubation, plates were examined for bacterial growth, or lack thereof. Compounds were tested at concentrations ranging from 0.5-32 μg/ml. […] The half growth inhibitory concentration (GI50) of each analog was determined by fitting the data using KaleidaGraph (v4.1.1, Synergy Software).
(§2) A modified broth microdilution assay was employed by incubating MRSA (ATCC: BAA-44) with Of1 in 2-fold series dilution in the presence of individual antibiotics at the highest sensitive concentration at 37° C. overnight. […] The MRC values were also determined for another three MRSA strains. […] Furthermore, the mammalian toxicity of Of1 was evaluated using human liver hepatocellular carcinoma HepG2 cell line in CellTiter Glo™ mammalian viability assay (Promega).
(§3) MRC screens were performed as follows: antibiotic MIC values where S. aureus is considered susceptible were determined from the CLSI handbook supplement. Analogs of Of1 were diluted to 5 mg/ml in DMSO. Antibiotic was prepared at twice the intended final concentration in Mueller Hinton Broth (MHB). For amoxicillin/clavulanic acid, the initial concentration was 8/4 μg/ml, for meropenem 8 μg/ml and for cefazolin 16 μg/ml. 50 μl of the antibiotic containing media was added to each well of 96 well plates and 100 μl was added to the top row. 1.28 μl of 5 mg/ml alkaloid solution was added to the top row of each plate to afford a concentration of 64 μg/ml in the top row of each plate and two fold serial dilutions were performed down the columns. Once the plates were prepared, a day culture of MRSA was diluted to OD600 0.002 and 50 μl was added to each well. The final concentration of MRSA was OD600 0.001, the final concentration of amoxicillin/clavulanic acid was 4/2 μg/ml, the final concentration of meropenem was 4 μg/ml the final concentration of cefazolin was 8 μg/ml, and the highest concentration of Of1 analog tested was 32 μg/ml. Plates were incubated overnight at 37° C. with shaking. The MRC value was determined as the concentration of Of1 analog in the presence of antibiotic at which there was no observable overnight growth.

[3] = test system: MRSA ATCC BAA-44; assay: as above; format: cell-based, S. aureus
Experimental: as §1, §2, §3

[4] = test system: MRSA ATCC 33592; assay: MIC, broth microdilution; format: cell-based, S. aureus; conditions: Staphylococcus aureus
Experimental: as §1, with “Activities listed in the table show the ability of the compounds of the invention to resensitize MRSA to a collection of β-lactam antibiotics. For these” for “For these”, “Synergy Software). Compounds 1a-1 are synthesized as shown in Scheme 1 below.” for “Synergy Software).”
The minimal inhibitory concentrations (MICs) of active Of1 analogs were determined by the broth microdilution method detailed in the Clinical and Laboratory Standards Institute handbook. […]

[5] = test system: MRSA ATCC BAA-44; assay: MIC, CLSI broth microdilution; format: cell-based, S. aureus; conditions: MRSA ATCC BAA-44, compound alone
[6] = test system: MRSA ATCC BAA-44; assay: MIC in the presence of 20 μM Of1 / alkaloid; format: cell-based, S. aureus; conditions: for fold of potentiation: MIC / MIC (+20 μM Of1); for MIC (+Of1): in the presence of 20 μM Of1
Experimental: (§4) Indoline alkaloid compounds were then screened for the ability to potentiate the activity of methicillin against MRSA. A multi-drug resistant MRSA strain (ATCC: BAA-44) was selected for the initial screening. […] To each well, 20 μM of each individual indoline alkaloid was added and the plates were incubated at 37° C. for 16 hrs.
(§5) The MRSA strain ATCC BAA-44 and the methicillin-sensitive S. aureus (MSSA) strain ATCC 25923 were used to determine the MIC values of various antimicrobial compounds in the presence of 20 μM Of1. The experiment was conducted similarly to the CLSI MIC determination described previously; however, MHB was supplemented with 40 μM Of1 prior to set up and inoculation. The final concentration of Of1 after inoculation with BAA-44 was 20 μM.

[7] = test system: MSSA strain (ATCC: 25923); assay: Potentiation of β-lactam antibiotics by 20 μM Of1 in MSSA; format: cell-based, S. aureus; conditions: MSSA ATCC 25923
Experimental: Taken together, it appears that Of1 is a resistance-modifying agent specifically for β-lactam antibiotics.
as §5

[8] = test system: ATCC 700789 (vancomycin intermediate resistant S. aureus, VISA); assay: Minimum resensitizing concentration (MRC); format: cell-based
Experimental: (§6) A modified broth microdilution assay was employed by incubating MRSA (ATCC: BAA-44) with Of1 in 2-fold series dilution in the presence of individual antibiotics at the highest sensitive concentration at 37° C. overnight. […] This is probably due to both the different sensitive concentration defined for each antibiotic and the different level of resistance of MRSA to various antibiotics. The MRC values were also determined for another three MRSA strains. The strain 33592 (ATCC) behaves similarly to BAA-44, and their MRCs for the three antibiotics tested are all 4 μg/mL. […] ATCC 700789 is particularly interesting, because it is also known as a vancomycin intermediate resistant S. aureus (VISA). […] Furthermore, the mammalian toxicity of Of1 was evaluated using human liver hepatocellular carcinoma HepG2 cell line in CellTiter Glo™ mammalian viability assay (Promega).

[9] = test system: methicillin-sensitive S. aureus (MSSA, ATCC: 25923); assay: MIC, CLSI broth microdilution; format: cell-based; conditions: Staphylococcus aureus; MSSA ATCC 25923, compound alone
Experimental: as §4
All antimicrobial compounds were purchased from Sigma-Aldrich. The growth media used for all MIC experiments was Mueller Hinton Broth (MHB) purchased from HIMEDIA through VWR (cat: 95039-356). The inoculum was prepared by diluting a bacterial day culture (OD600 0.15-0.4) to OD600 0.002. This dilution was further diluted two fold when added to 96 well microplates (USA Scientific CytoOne 96-well TC plate, cat: CC7682-7596) for a final inoculum concentration of OD600 0.001. All plates were incubated at 37° C. with shaking for 18 hours (overnight) before results were interpreted.

[10] = test system: MRSA ATCC BAA-1683; assay: Minimum resensitizing concentration (MRC); format: cell-based, S. aureus
Experimental: as §6

[11] = Mammalian toxicity, CellTiter Glo viability assay; format: cell-based, human; conditions: human, HepG2 cells
Experimental: as §6

[12] = test system: HepG2 cells; assay: Mammalian toxicity, CellTiter Glo viability assay; format: cell-based, human; conditions: at 4 μg/mL
Experimental: as §6

[13] = Staphylococcus aureus, read-out: MIC

C=C1CCC[C@@H]2Nc3c(F)cc(Br)cc3[C@]12CCN (stereo in doubt) [Cpd 11b, 2-(6-Bromo-8-fluoro-4-methylidene-2,3,4,4a,9,9a-hexahydro-1H-carbazol-4a-yl)ethan-1-amine]
GI50 [1]: 16.2 µg/mL (≈ 49.8 µM)

2-(6-Bromo-4-methylidene-2,3,4,4a,9,9a-hexahydro-1H-carbazol-4a-yl)-N-(4-chlorobenzenesulfonyl)-S-(4-chlorophenyl)ethane-1-sulfonamido [Cpd 1h]
MRC meropenem ([2]; MRSA ATCC 33592, meropenem at 4 μg/ml): >32 µg/mL | MRC amox/clav ([3]; MRSA ATCC BAA-44, amoxicillin/clavulanic acid at 4/2 μg/ml): >32 µg/mL | MRC cefazolin ([3]; MRSA ATCC BAA-44, cefazolin at 8 μg/ml): >32 µg/mL | MRC methicillin ([3]; MRSA ATCC BAA-44, in presence of methicillin): >32 µg/mL

C[C@@H](O)[C@H]1C(=O)N2C(C(=O)O)=C(S[C@@H]3CN[C@H](C(=O)N(C)C)C3)[C@H](C)[C@H]12 [meropenem]
MIC [4]: 16 µg/mL | MIC [5, 13]: 4 µg/mL (≈ 10.4 µM) | fold of potentiation ([6]; MRSA ATCC BAA-44): 16 | MIC (+Of1) ([6]; MRSA ATCC BAA-44): 0.25 µg/mL

CN(C)[C@@H]1C(O)=C(C(N)=O)C(=O)[C@@]2(O)C(O)=C3C(=O)c4c(O)cccc4[C@@](C)(O)[C@H]3C[C@@H]12 [tetracycline]
MIC [5, 13]: 64 µg/mL (≈ 144 µM) | fold of potentiation ([6]; MRSA ATCC BAA-44): 1 | MIC (+Of1) ([6]; MRSA ATCC BAA-44): 64 µg/mL

C=C1CCC[C@@H]2Nc3ccc(Br)cc3[C@]12CCNS(=O)(=O)c1ccc(Cl)cc1 (stereo in doubt) [Of1, N-(2-(6-Bromo-4-methylene-2,3,4,4a,9,9a-hexahydro-1H-carbazol-4a-yl)ethyl)-4-chlorobenzenesulfonamide]
GI50 [1]: 17.1 µg/mL (≈ 35.5 µM) | potentiation of β-lactam antibiotics in MSSA [7]: does not show any significant potentiation effect | MRC of Of1, oxacillin ([8]; ATCC 700789): >64 µg/mL | MRC of Of1, amoxicillin/clavulanate ([8]; ATCC 700789 (VISA)): 4 µg/mL | MRC of Of1, amoxicillin/clavulanate ([2]; ATCC 33592): 4 µg/mL | MRC of Of1, cefazolin ([2]; ATCC 33592): 4 µg/mL | MRC of Of1, oxacillin ([2]; ATCC 33592, oxacillin at highest sensitive concentration): 4 µg/mL | MRC of Of1, oxacillin ([3]; ATCC BAA-44, oxacillin at highest sensitive concentration): 2 µg/mL | MIC [9]: > 128 µg/mL | MRC of Of1, amoxicillin/clavulanate [10]: 4 µg/mL | MRC of Of1, oxacillin ([10]; 32 μg/mL highest concentration tested): >32 µg/mL | MIC [5]: > 128 µg/mL | MIC [5, 13]: > 128 µg/mL | fold potentiation of methicillin ([6]; 20 μM (ca. 10 μg/mL) Of1, MRSA BAA-44): 16 fold | fold potentiation of all β-lactam antibiotics ([6]; 20 μM Of1, MRSA BAA-44): 8-128 fold | fold potentiation of meropenem ([6]; 20 μM Of1, MRSA BAA-44): 16 fold | MIC of methicillin in media supplemented with 20 μM alkaloid ([6]; MRSA ATCC BAA-44, methicillin MIC alone 128): 8 µg/mL | GI50 [11]: ~8.9 µg/mL (≈ 18.5 µM) | cytotoxic effect against HepG2 cells [12]: no observable cytotoxic effect

Cc1nnc(SCC2=C(C(=O)O)N3C(=O)[C@@H](NC(=O)Cn4cnnn4)[C@H]3SC2)s1 [cefazolin]
MIC [5, 13]: 128 µg/mL (≈ 282 µM) | fold of potentiation ([6]; MRSA ATCC BAA-44): 32 | MIC (+Of1) ([6]; MRSA ATCC BAA-44): 4 µg/mL

COc1cccc(OC)c1C(=O)N[C@@H]1C(=O)N2[C@@H]1SC(C)(C)[C@@H]2C(=O)O [methicillin]
MIC [5, 13]: 128 µg/mL (≈ 336 µM) | fold of potentiation ([6]; MRSA ATCC BAA-44): 16 | MIC (+Of1) ([6]; MRSA ATCC BAA-44): 8 µg/mL

amoxicillin/clavulanate
MIC [5]: 32/16 | fold of potentiation ([6]; MRSA ATCC BAA-44): 8 | MIC (+Of1) ([6]; MRSA ATCC BAA-44): 4/2
